Entries after “also recorded” stand apart in the source; their conditions may differ.
Legend:
[1] = tested on: HepG2 cells; experiment: Confocal microscopy: lipid droplets in oleate induced HepG2 cells; assay type: cell-based; set-up: key to Reduction in Lipid Droplets: + = slight or in insignificant; ++ = Moderate; +++ and ++++ = active; +++ and ++++ = active; +++++ = very active; conditions: for Number of lipid droplets: HepG2 cells, 250 μM oleate induction; for Reduction in Lipid Droplets: oleate induced HepG2 cells, score
Procedure, shortened: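 HepG2 cells were loaded with 250 μM oleate and given compound in DMSO (10 μM screen; 10 nM–5 μM dose series) for 24 h; BSA as negative control. Lipid droplets stained with BODIPY/Hoechst, imaged confocally; mean droplets per cell counted over ~20 cells versus oleate-only cells.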

[2] = tested on: COP1; experiment: qPCR of COP1 mRNA in HepG2 cells; assay type: cell-based; conditions: 5 μM and 10 μM, 24 hours
Procedure: (§1) Ubiquitination of ATGL by COP1 is a post translational event, therefore, it is expected that the mRNA level of ATGL will not change compared to control upon treatment with the compound of the present disclosure which inhibit COP1. To establish this, HepG2 cells were treated with 5 μM and 10 μM of the compounds 9, 107, 171, 179 and 73 for 24 hours. RNA was isolated using TRIzol reagent followed by chloroform treatment and precipitation with isopropanol. cDNA was obtained from the isolated RNA and qPCR was carried out using SyBr green reagent. COP1 and ATGL gene expression levels were checked. 18s was used as control. FIG. 8 illustrates that compounds exert no effect on the mRNA levels of ATGL.

[3] = tested on: ATGL; experiment: qPCR of ATGL mRNA in HepG2 cells; assay type: cell-based; conditions: 5 μM and 10 μM, 24 hours
Procedure: as §1

[4] = molecular target: COP1 (Homo sapiens, UniProt Q8NHY2); experiment: In vitro ubiquitination of purified ATGL by COP1 with UbcH6; assay type: biochemical; set-up: host or cells: HEK293A; conditions: 5 μM compound, COP1 overexpressing HEK293A lysate
From the text: Purification of ATGL protein and obtaining COP1 overexpressing cell lysate: Myc-ATGL plasmid and Myc-DDK-COP1 plasmid ([…] each) were transfected separately in cultured HEK293A cells with the help of Lipofectamine2000 (Invitrogen). Cells were harvested in Lysis Buffer and protein solution was extracted as described previously. The Lysis Buffer used to harvest COP1 overexpressing cells had 0.1% SDS supplemented in it. The concentration of protein was estimated using Bradford assay. For source of E3 ligase, the total cell lysate from COP1 overexpressing HEK293A cells were used.
For purification of Myc-ATGL: 1 ml of Ni^2+-NTA resin (Roche) was taken in a 15 ml centrifuge tube and centrifuged at 2000 RPM for 5 minutes. The upper ethanol layer was discarded and the pellet was washed in 1×PBS twice to remove any remaining traces of ethanol. The pellet was finally washed once with Lysis Buffer for equilibration. […] The tube was incubated overnight at 4° C. in a rotary shaker.
The next day, the solution was centrifuged at 2000 RPM for 10 minutes and the supernatant collected. Lysis Buffer (containing protease inhibitor cocktail twice the previous concentration) was used for washing the beads twice to remove non-specific and unattached reactants in a stringent condition. The beads were finally washed once with 1×PBS containing the same amount of protease inhibitor for equilibration. 300 μl of 500 mM Imidazole (Sigma Aldrich) solution in 1×PBS was added to the resin for elution of ATGL and centrifuged at 2000 RPM for 30 minutes and the eluted protein was collected. To the separated resin, 300 μl of 1M Imidazole solution was added and centrifuged at 2000 RPM for 30 minutes and the second elute was collected. […] of eluted protein from each elution was boiled with 5 μl of Laemmli's buffer at 95° C. for 10 minutes and run in 10% SDS-PAGE gel. The supernatant collected before elution of ATGL and the proteins still attached to the Ni^2+-NTA resin were also run in the SDS-PAGE. The resolved proteins were subsequently transferred on PVDF membranes and probed with anti-myc primary antibody to check the presence of purified ATGL in the elute. Also to check the yield of the purified protein, 40 μl of the elute was run in 10% SDS page and stained with Coomassie Brilliant Blue solution followed by destaining with methanol, glacial acetic acid and water in a 50:40:10 ratio.
For identifying the E2 ubiquitin-conjugating enzyme responsible for ATGL ubiquitination by COP1, an in vitro ubiquitinylation kit (Enzo Life Sciences) was used. The assay was reconstituted as per manufacturer's protocol with the panel of E2 conjugating enzymes provided and other required components at the mentioned concentrations. The reaction was carried out for 6 hours following which it was quenched as per directions with the provided 2× non-reducing gel buffer and then analysed by western blotting.
Having identified the E2 ubiquitin conjugating enzyme as UbcH6, ubiquitination assay was set up in vitro as described previously with 5 μM of the compound 9, 107, 171, 179 and 73 followed by quenching and analysis by western blotting.
Ubiquitination of a target protein is carried out in a three step process involving three different enzymes: E1 ubiquitin activating enzyme, E2 ubiquitin conjugating enzyme and E3 ubiquitin ligase. In humans, there is only one E1 ubiquitin activating enzyme and multiple E2 and E3 enzymes. […]

COP1 (Homo sapiens, UniProt Q8NHY2), sequence (Q8NHY2 whole entry): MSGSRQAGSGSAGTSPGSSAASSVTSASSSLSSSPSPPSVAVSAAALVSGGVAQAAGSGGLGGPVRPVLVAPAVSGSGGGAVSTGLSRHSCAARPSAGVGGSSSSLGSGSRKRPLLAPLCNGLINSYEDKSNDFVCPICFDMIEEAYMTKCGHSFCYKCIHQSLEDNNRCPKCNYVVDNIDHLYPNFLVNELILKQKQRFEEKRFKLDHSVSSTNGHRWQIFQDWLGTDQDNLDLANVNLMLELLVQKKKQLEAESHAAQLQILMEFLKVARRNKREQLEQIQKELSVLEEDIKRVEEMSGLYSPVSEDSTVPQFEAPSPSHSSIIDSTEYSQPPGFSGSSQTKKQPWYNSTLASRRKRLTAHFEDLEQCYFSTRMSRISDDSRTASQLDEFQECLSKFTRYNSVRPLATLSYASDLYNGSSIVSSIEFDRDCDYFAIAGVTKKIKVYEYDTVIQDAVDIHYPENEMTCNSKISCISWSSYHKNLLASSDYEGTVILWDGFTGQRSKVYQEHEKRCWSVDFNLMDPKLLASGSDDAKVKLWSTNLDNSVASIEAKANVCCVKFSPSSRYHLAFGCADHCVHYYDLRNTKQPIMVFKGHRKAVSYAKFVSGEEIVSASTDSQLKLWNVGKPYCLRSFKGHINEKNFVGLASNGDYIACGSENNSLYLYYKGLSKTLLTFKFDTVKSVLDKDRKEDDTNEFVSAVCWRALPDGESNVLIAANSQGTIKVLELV

SMILES | Number of lipid droplets [1] | Reduction in Lipid Droplets [1] | COP1 mRNA level [2] | ATGL mRNA level [3] | ATGL ubiquitination by COP1 in vitro [4]
CC(=O)c1cccc(NC(=O)Nc2ccc3ncn(CCCN4CCOCC4)c(=O)c3c2)c1 [Compound 139, 1-(3-acetylphenyl)-3-(3-(3-morpholinopropyl)-4-oxo-3,4-dihydroquinazolin-6-yl)urea] | reduction in lipid droplets | +++ |  |  | 
COCCn1c(C)nc2ccc(NC(=O)Nc3cccc(C(C)=O)c3)cc2c1=O [Compound 107, 1-(3-acetylphenyl)-3-(3-(2-methoxyethyl)-2-methyl-4-oxo-3,4-dihydroquinazolin-6-yl)urea] |  | ++++ | no significant changes | no significant changes | effective in reducing the ubiquitination of ATGL by COP1; also recorded: significant efficacy in curbing ATGL ubiquitination by COP1
COCC(C)n1cnc2ccc(NC(=O)Nc3cccc(C(C)=O)c3)cc2c1=O (centres unmarked) [Compound 179, 1-(3-acetylphenyl)-3-(3-(1-methoxypropan-2-yl)-4-oxo-3,4-dihydroquinazolin-6-yl)urea] |  |  | no significant changes | no significant changes | effective in reducing the ubiquitination of ATGL by COP1; also recorded: significant efficacy in curbing ATGL ubiquitination by COP1
COCCn1cnc2ccc(NC(=O)Nc3cccc(C(C)=O)c3)cc2c1=O [Compound 9, 1-(3-acetylphenyl)-3-(3-(2-methoxyethyl)-4-oxo-3,4-dihydroquinazolin-6-yl)urea] | decrease in the number of lipid droplets | ++++ | no significant changes | no significant changes | effective in reducing the ubiquitination of ATGL by COP1; also recorded: significant efficacy in curbing ATGL ubiquitination by COP1
